Measured values: patent publication EP4759814A1, “TRICYCLIC COMPOUND AND USE THEREOF AS MAT2A INHIBITOR” (SK Biopharmaceuticals Co., Ltd., priority 2023, dated 2025)

Experiments:
[1] = Phase 1 clinical trials; cited from earlier work
[2] = tested on: HCT116 (MTAP WT) cell line; test: Cell proliferation inhibition in wild-type control cells, WST-1 assay; format: cell-based; conditions: Homo sapiens, HCT-116, 120 hours of drug treatment, maximum concentration 10 µM, read-out: HCT116 WT (IC50, cell proliferation inhibited by 50%)
In short: (§1)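 HCT116 MTAP-deleted and isogenic MTAP wild-type cells (1,000 cells/well, 10% FBS RPMI1640) attached 24 h, then treated with 4-fold dilutions from 10 µM for 120 hours. WST-1 added 2 hours, absorbance at 450 nm, normalized to DMSO control as 100%; IC50 from 4-parameter dose-response fit.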

[3] = tested on: HCT116 (MTAP del) cell line; test: Cell proliferation inhibition in MTAP-deficient cancer cells, WST-1 assay; format: cell-based; conditions: Homo sapiens, HCT-116, 120 hours of drug treatment, maximum concentration 10 µM, read-out: HCT116 MTAP^-/- (IC50, cell proliferation inhibited by 50%)
In short: as §1

MAT2A = target: T1, MAT2A (Homo sapiens, UniProt P31153); test: MAT2A inhibitory activity, colorimetric phosphate detection (PiColorLock) enzyme assay; format: biochemical; conditions: Test Condition 1 or 2 (not stated which per compound); absorbance at 630 nm
T1 construct: purchased BPS Bioscience (USA) 71401
In short: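 Compound preincubated 30 min at room temperature with enzyme, then reacted 1 h with ATP and Met; phosphate read colorimetrically at 630 nm. Condition 1: top 50 µM, 12 ng/µL enzyme, 100 µM ATP, 80 µM Met. Condition 2: top 1 µM, 4 ng/µL enzyme, 300 µM ATP, 150 µM Met. Tris pH 8.0 buffer; IC50 by 4-parameter fit.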

T1 sequence (P31153 whole entry): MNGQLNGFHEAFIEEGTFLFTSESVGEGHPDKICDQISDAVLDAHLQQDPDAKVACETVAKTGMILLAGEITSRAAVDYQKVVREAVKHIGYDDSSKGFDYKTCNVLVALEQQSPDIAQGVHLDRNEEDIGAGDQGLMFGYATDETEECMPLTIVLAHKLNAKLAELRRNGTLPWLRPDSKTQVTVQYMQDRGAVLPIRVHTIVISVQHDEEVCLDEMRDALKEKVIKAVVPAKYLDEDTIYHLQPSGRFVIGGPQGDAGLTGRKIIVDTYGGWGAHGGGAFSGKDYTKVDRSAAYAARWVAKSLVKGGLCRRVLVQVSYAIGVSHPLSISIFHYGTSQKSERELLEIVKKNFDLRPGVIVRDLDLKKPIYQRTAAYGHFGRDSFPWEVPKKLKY

Row | SMILES | hepatotoxicity [1] | IC50 [2] | IC50 [3] | IC50 (MAT2A)
1 | COc1ccc(-c2c(Nc3ccccn3)[nH]c3c(C4=CCCCC4)c(-c4ccccc4)nn3c2=O)cc1 [AG-270] | hepatotoxicity associated with inhibition of UGT1A1 |  |  | 
2 | COc1ncccc1-n1c(=O)c2nccn2c2cc(Cl)c(Br)cc21 [Example 107, 7-bromo-8-chloro-5-(2-methoxypyridin-3-yl)imidazo[1,2-a]quinoxalin-4(5H)-one] |  | > 10000 nM | > 10000 nM | 1 to 100 nM
3 | O=c1c2nccn2c2cc(Cl)c(Br)cc2n1-c1cccc2ncsc12 [Example 108, 5-(benzo[d]thiazol-7-yl)-7-bromo-8-chloroimidazo[1,2-a]quinoxalin-4(5H)-one] |  | 1000 to 10000 nM | 100 to 1000 nM | 1 to 100 nM
4 | O=c1c2nccn2c2cc(Cl)c(Br)cc2n1-c1cccc2[nH]ccc12 [Example 109, 7-bromo-8-chloro-5-(1H-indol-4-yl)imidazo[1,2-a]quinoxalin-4(5H)-one] |  | > 10000 nM | 100 to 1000 nM | 1 to 100 nM
5 | CCc1ncccc1-n1c(=O)c2nccn2c2cc(Cl)c(C(F)(F)F)cc21 [Example 110, 8-chloro-5-(2-ethylpyridin-3-yl)-7-(trifluoromethyl)imidazo[1,2-a]quinoxalin-4(5H)-one] |  | > 10000 nM | > 10000 nM | 1 to 100 nM
6 | COc1cc(C(F)(F)F)cc2c1n1ccnc1c(=O)n2-c1cccnc1C [Example 113, 9-methoxy-5-(2-methylpyridin-3-yl)-7-(trifluoromethyl)imidazo[1,2-a]quinoxalin-4(5H)-one] |  | > 10000 nM | 1 to 100 nM | 1 to 100 nM
